Values quoted from earlier work, collected in US20250319024A1, “TARGETED NANOPARTICLES AND THEIR USES RELATED TO INFECTIOUS DISEASE” (priority 2021, published 2025).
Read-outs that look alike come from different tables or passages of the source.

Test system: RIF sensitive strains / resistant strains
Settings: cited from earlier work

CO[C@H]1/C=C/O[C@@]2(C)Oc3c(C)c(O)c4c(O)c(c(/C=N/N5CCN(C)CC5)c(O)c4c3C2=O)NC(=O)/C(C)=C\C=C\[C@H](C)[C@H](O)[C@@H](C)[C@@H](O)[C@@H](C)[C@H](OC(C)=O)[C@@H]1C [free RIF, rifampin]
ED95 (RIF sensitive strains): below 0.5 μg/mL
ED95 (resistant strains): above 2 μg/mL
